Molecules are shown by their SMILES.

Series [1] in a line: Percutaneous absorption of C^14 nitroglycerin, neat liquid application (urinary radioactivity). The format is in vivo, rhesus monkey (Macaca mulata). The following applies: for Percent Dose Absorbed (Mean + SEM): neat liquid. How it is done: Studies to determine the topical availability of nitroglycerin were carried out in vivo with the rhesus monkey (Macaca mulata).
The animals were placed in metabolism chairs for the length of time of the dose application. Urine was collected while the animals were still in the metabolism chairs. After the dose was removed, the animals were moved to a metabolism cage for continued urine collection.
Nitroglycerin, labeled with carbon-14, was applied to the skin. The site of application can be any part of the body; however, the ventral forearm or upper part of the inner arm was used for convenience. The area of application is generally small, i.e., 2-10 cm^2; however, any area can be used. The final concentration is expressed as an amount per unit area of skin (i.e. 1.0 mg/1 cm^2).
In the case of liquid, cream or ointment formulations, the dose was spread over the exact skin area. In the case of the pads of the present invention, they were taped to the skin. In the case of liquids, cream or ointments, the treated area was covered with aluminum foil and tape. In all cases, the tape and foil and where applicable the nitroglycerin pads were removed after 24 hours and the site of application was wiped three times with gauze soaked with ethanol, then washed with soap and water.
Absorption is quantified on the basis of the percent of radioactivity excreted in urine for 3 days following application of a known amount of the labeled nitroglycerin to the skin. Daily urinary excretion values are collected for excretion of radioactivity by other routes and retention of radioactivity in the body by the administration of an intravenous dose of C^14 -labeled nitroglycerin according to the following formula: [formula]
In the case of C^14 -labeled nitroglycerin applied via the nitroglycerin pad of the present invention, the device can be removed from the skin and analyzed for residual radioactivity. The amount of radioactivity which has been removed from the device, by comparative assays with devices not applid to skin, is considered to have been released in vivo during the time of skin application. Analysis for radioactivity can be conducted using any commercially available liquid scintillation counter. To determine the amount of radioactivity in this study, 1.0 ml of radioactive urine was mixed with scintillation fluid (10 ml of PCS solubilizer, Amersham Corporation, Arlington Heights, Ill.). The urine mixed with scintillant is counted for radioactivity in a liquid scintillation counter and the amount of radioactivity determined.

The nature of series [2]: Effect of added hydrophobic solvents on nitroglycerin transport and delivery. The settings on record: miglyol oil 812 and isopropyl palmitate alone, or with mineral oil, added to the hydrophilic solvent system in the polymer matrix.

`O=[N+]([O-])OCC(CO[N+](=O)[O-])O[N+](=O)[O-]` [C^14 Nitroglycerin, nitroglycerin]: the “Percent Dose Absorbed (Mean + SEM)” value in series [1] (topical concentration 0.01 mg/cm^2, 24 hours) was 41.8 ± 3.2%; in series [1] (topical concentration 0.1 mg/cm^2, 24 hours) it was 43.5 ± 3.3%; in series [1] (topical concentration 1.0 mg/cm^2, 24 hours) it was 36.6 ± 3.7%; in series [1] (topical concentration 7.0 mg/cm^2, 24 hours), 22.6 ± 4.2%; in series [1] (topical concentration 10.0 mg/cm^2, 24 hours) it was 7.8 ± 0.7%. In addition, the absorption result in series [1] (topical concentrations of 7 and 10 mg/cm^2) is “decreased absorption”. Besides, the “maximum optimum dosage for good bioavailability” value in series [1] (topical, neat nitroglycerin) amounted to 5 mg/cm^2. In addition, the drug delivery entry in series [2] is given as “increased”. The drug transport entry in series [2] is given as “greatly enhanced”.

The values are drawn from patent US4336243A, “Transdermal nitroglycerin pad” (G. D. Searle & Co., priority 1981, dated 1982).
